Entries after “also recorded” stand apart in the source; their conditions may differ.
Tests used:
[1] = Rat oral pharmacokinetics, one-compartment PK/PD model; format: in vivo
Protocol: (§1) Adult male Sprague Dawley rats (Charles River) were housed under controlled laboratory conditions (temperature at 21±1° C.) on a 12:12 hour light-dark cycle. Animals were given free access to food and water upon arrival to the facility and animals were acclimatized to their holding room for at least 48 hours. Animals were fasted but allowed free access to water for 15-18 hours prior to dosing.
(§2) Rats (n=6/timepoint/dose level) received a single oral dose of 4-[2-(2,4,6-trifluorophenoxymethyl)phenyl]piperidine (0.3, 1, 5, 10, 30, and 60 mg/kg) and were euthanized by decapitation at specified time points (0.5, 2, 4, 6, and 8 hr for 5 mg/kg dose level; 2 hr for 0.3, 1, 10, 30, and 60 mg/kg dose levels) post-administration. Spinal cords were dissected for ex vivo transporter occupancy and PK assessments from the same animals. The spinal cord was harvested by hydraulic extrusion using phosphate-buffered saline, and the lumbar segment dissected and frozen on dry ice. The remaining spinal cord segments were collected and homogenized in water (25% w/w) for PK analysis. All samples were stored at −80° C. until analysis.
(§3) A kinetic radioligand binding assay was used to determine NET and SERT occupancy in rat spinal cord, as described previously in Bourdet et al., J. Pharm. Exp. Ther. (2012) 341:137-145. PK/PD parameters were estimated by a compartmental modeling approach (WinNonlin Version 5.0.1, Pharsight Corporation). One- and two-compartment PK models with first-order absorption and elimination were evaluated. The one-compartment model was selected. The pharmacodynamics model was an effect compartment Emax model linked directly to the central PK compartment (WinNonlin PK Model 3, PD Model 101). Selection of models was based upon best fit in terms of visual inspection, Akaike Information Criteria, and weighted residual sum of squares using the Gauss-Newton minimization method.

[2] = system: subjects with primary autonomic failures (MSA, PD, or PAF) and symptomatic nOH; assay: Phase 3 4-week clinical study in symptomatic nOH (Example 6)
Text: The first Phase 3 study was a randomized, double-blind, placebo-controlled, parallel-group, multicenter study designed to evaluate its efficacy, safety, and tolerability in subjects with primary autonomic failures (MSA, PD, or PAF) and symptomatic nOH after 4 weeks of treatment.
This study was a Phase 3, randomized, double-blind, placebo-controlled, parallel-group, multicenter study to evaluate efficacy, safety, and tolerability of ampreloxetine (administered as ampreloxetine hydrochloride) in subjects with primary autonomic failures (MSA, PD, or PAF) and symptomatic nOH after four weeks of treatment. Subjects participated in the study for approximately 10 weeks.
Subjects were randomized in a 1:1 ratio to each of either ampreloxetine or placebo group stratified by the subject's disease type (MSA, PD, or PAF).
Subjects were randomized in a 1:1 ratio to receive either ampreloxetine (test product) or placebo (reference product) once daily through the end of the treatment period.
Subjects randomized to receive ampreloxetine began taking study medication on Day 2 in the morning at a dose of 10 mg and continued to take this dose once daily through the end of the treatment period.
The study consisted of three periods: (i) 4-week screening, (ii) 4-week randomized treatment, and (iii) 2-week follow up.
Following randomization and completion of study assessments, the subject received a single 10-mg dose of ampreloxetine (or matching placebo) once daily (QD) for the remaining double-blind treatment period.
The efficacy assessments for this study included: OHQ; PGI-C; and incidence of falls. The exploratory assessments included: Orthostatic standing test; PK and pharmacodynamics; Non-Motor Symptom Scale (NMSS); EQ-5D-5L; Hospital Anxiety and Depression Scale (HADS); and Burden Scale for Family Caregivers-short version (BSFC-s).
The primary study endpoint was the change from baseline in OHSA #1 (dizziness, lightheadedness, feeling faint, or feeling like blacking out) at Week 4.
The primary efficacy evaluation was the change from baseline of OHSA #1 at Week 4. Baseline was defined as Day 1 pre-dose measurement. A mixed model for repeated measures (MMRM) was fitted to compare treatments. The model included fixed effect class terms of treatment, baseline disease type (MSA, PD, PAF), week, and continuous covariate of baseline OHSA #1 score, a random subject effect, with an unstructured covariance structure using the FAS.

human recombinant NET = molecular target: T1, human recombinant NET (Homo sapiens, UniProt P23975); assay: Radioligand binding, [3H]-nisoxetine, HEK293-hNET membranes; conditions: mean (95% confidence intervals)
T1 construct: expressed in transfected cells; host or cells: HEK293
Text: (§4) The in vitro pharmacology of ampreloxetine at human recombinant and rat native monoamine transporters was characterized as described in Smith et al., Inter. J. Neuropsychopharmcol. (2015) 1-11; and Tsuruda et al., J. Pharmacol. Toxicol. Meth. (2010) 61:192-204. See also, e.g., U.S. Pat. Nos. 8,304,432 B2 and 8,304,433 B2. Radioligands were sourced commercially (Perkin Elmer LifeSciences or GE Healthcare Life Sciences).
(§5) Briefly, membranes prepared from HEK293 (Human Embryonic Kidney 293) or CHO-K1 (Chinese Hamster Ovary-K1) cells stably transfected with human recombinant SERT (HEK293-hSERT), NET (HEK293-hNET), or DAT (CHO-K1-hDAT) were incubated for 1 hr at 22° C. in the absence, or presence, of 4-[2-(2,4,6-trifluorophenoxymethyl)phenyl]piperidine and [^3H]-citalopram (1.0 nM) for SERT, [^3H]-nisoxetine (2.0 nM) for NET, and [^3H]-WIN35428 (3.0 nM) for DAT in 50 mM Tris-HCl, 120 mM NaCl, 5 mM KCl, 0.025% BSA, 100 μM ascorbic acid, pH 7.4. Rat cortical membrane preparations were incubated with [^3H]-citalopram (2.0 nM) for SERT or [^3H]-nisoxetine (4.0 nM) for NET for 1 hr at 22° C. […] Binding and uptake assays were terminated by rapid filtration and radioactivity determined by liquid scintillation spectroscopy. […] Selectivity for NET (rounded to one significant figure) was determined as follows: […]

human recombinant SERT = molecular target: T2, human recombinant SERT (Homo sapiens, UniProt P31645); assay: Radioligand binding, [3H]-citalopram, HEK293-hSERT membranes; conditions: mean (95% confidence intervals)
T2 construct: expressed in transfected cells; host or cells: HEK293
Text: as §4, §5

[3] = molecular target: T3, cytochrome P450 1A2 (CYP1A2) (Homo sapiens, UniProt P05177); conditions: healthy subjects, cited from earlier work
T3 construct: from tissue; host or cells: in vivo, healthy human subjects (as reported in Kanodia et al. 2021)

plasma protein = assay: Plasma protein binding, human; format: in vitro ADME
SERT = molecular target: T4, SERT (Rattus norvegicus, UniProt P31652); assay: Ex vivo transporter occupancy in rat spinal cord (SERT)
T4 construct: from tissue; host or cells: lumbar spinal cord of orally dosed male Sprague Dawley rats
Protocol: as §1, §2, §3

[4] = MSA subjects, Week 4, 10 mg, N 33

T4 sequence (P31652 whole entry): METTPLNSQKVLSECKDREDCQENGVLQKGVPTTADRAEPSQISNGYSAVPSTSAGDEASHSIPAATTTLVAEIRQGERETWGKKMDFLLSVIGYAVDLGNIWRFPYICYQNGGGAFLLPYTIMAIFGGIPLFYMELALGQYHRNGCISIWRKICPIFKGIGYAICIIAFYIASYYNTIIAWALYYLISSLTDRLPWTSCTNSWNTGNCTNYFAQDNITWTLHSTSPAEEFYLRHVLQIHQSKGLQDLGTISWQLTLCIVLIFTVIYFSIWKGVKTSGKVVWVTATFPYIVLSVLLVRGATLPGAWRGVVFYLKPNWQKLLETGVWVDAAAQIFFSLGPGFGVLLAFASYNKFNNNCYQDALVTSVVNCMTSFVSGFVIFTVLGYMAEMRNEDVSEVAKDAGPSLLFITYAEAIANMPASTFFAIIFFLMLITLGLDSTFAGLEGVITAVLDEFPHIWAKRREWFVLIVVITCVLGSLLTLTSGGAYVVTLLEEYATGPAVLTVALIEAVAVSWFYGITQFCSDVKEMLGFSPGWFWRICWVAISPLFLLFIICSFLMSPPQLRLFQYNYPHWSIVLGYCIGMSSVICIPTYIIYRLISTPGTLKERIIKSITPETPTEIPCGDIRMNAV
T3 sequence (P05177 whole entry): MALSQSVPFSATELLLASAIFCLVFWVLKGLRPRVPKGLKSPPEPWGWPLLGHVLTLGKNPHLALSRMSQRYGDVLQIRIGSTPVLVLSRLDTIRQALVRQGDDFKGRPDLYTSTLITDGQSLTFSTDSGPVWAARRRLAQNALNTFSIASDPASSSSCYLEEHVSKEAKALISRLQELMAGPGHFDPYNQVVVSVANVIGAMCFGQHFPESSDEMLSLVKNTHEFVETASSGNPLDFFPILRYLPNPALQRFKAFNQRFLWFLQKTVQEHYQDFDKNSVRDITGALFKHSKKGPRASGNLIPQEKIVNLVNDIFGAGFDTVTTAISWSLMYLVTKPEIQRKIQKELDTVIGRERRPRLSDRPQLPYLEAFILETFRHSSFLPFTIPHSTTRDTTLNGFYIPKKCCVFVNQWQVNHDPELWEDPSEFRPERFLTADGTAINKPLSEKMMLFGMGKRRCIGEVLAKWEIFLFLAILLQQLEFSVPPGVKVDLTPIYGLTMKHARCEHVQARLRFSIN
T1 sequence (P23975 whole entry): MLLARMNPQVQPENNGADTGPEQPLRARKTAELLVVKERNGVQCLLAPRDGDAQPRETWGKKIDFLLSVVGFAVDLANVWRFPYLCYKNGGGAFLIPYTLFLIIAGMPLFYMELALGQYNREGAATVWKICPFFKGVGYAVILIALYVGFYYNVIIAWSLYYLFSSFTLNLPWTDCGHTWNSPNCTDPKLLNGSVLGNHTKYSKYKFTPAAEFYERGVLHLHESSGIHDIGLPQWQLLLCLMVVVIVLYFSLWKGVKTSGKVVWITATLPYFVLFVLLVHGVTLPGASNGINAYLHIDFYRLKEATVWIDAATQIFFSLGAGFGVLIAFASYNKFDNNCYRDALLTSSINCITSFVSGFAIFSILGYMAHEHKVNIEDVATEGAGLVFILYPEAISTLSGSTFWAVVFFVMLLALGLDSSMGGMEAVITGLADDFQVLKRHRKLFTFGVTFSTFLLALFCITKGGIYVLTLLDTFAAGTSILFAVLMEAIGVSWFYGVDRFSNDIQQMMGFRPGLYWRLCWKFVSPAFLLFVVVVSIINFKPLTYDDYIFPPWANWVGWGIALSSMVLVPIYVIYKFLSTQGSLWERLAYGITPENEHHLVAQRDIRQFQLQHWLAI
T2 sequence (P31645 whole entry): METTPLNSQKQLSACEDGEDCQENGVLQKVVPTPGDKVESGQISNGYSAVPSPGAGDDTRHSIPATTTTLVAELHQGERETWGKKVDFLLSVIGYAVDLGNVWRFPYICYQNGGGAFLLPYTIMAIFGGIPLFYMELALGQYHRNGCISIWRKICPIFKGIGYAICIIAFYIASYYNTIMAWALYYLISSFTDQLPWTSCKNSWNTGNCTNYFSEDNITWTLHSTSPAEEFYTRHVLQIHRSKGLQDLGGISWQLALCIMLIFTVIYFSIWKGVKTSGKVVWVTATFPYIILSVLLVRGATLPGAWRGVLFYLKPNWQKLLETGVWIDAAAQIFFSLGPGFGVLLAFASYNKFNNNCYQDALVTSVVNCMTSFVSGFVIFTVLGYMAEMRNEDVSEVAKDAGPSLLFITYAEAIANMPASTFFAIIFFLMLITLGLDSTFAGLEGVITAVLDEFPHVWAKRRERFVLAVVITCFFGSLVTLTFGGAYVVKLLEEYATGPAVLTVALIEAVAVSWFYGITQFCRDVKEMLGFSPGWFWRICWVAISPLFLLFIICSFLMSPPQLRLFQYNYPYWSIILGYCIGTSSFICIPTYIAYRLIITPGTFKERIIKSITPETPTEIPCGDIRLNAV

## Fc1cc(F)c(OCc2ccccc2C2CCNCC2)c(F)c1 [Ampreloxetine, 4-[2-(2,4,6-trifluorophenoxymethyl)phenyl]piperidine]
[1]
  V/F, volume of the central compartment divided by oral bioavailability: 54.8 L/kg
  k01, first-order absorption rate constant: 0.777 h⁻¹
  k10, elimination rate constant from the central compartment: 0.319 h⁻¹
[2]; 10 mg once daily, 4 weeks
  Deaths: no deaths were reported
  Supine hypertension: no signal for supine hypertension
[2]; 10 mg once daily, 4 weeks, none considered related to study drug
  Serious adverse events, number of subjects: four
[2]; MSA subjects, Week 4, 10 mg vs placebo, P-value 0.136
  Anxiety Total Score, Change from Baseline, LS Mean Difference: −1.09
[2]; [4]
  Anxiety Total Score, Change from Baseline, LS Mean: −0.75
  Anxiety Total Score, Change from Baseline, Mean: −0.67
  Anxiety Total Score, Change from Baseline, Median: −1.00
[2]; Week 4, 10 mg once daily, MSA, PD or PAF
  Primary endpoint: change from baseline of OHSA #1 score vs placebo: did not meet its primary endpoint; also recorded: did not meet the primary endpoint
Human recombinant NET
  Transporter Binding: pKi, NET: 8.8 (8.8, 8.9)
Human recombinant SERT
  Transporter Binding: pKi, SERT: 8.5 (8.5, 8.6)
[3]; CYP1A2
  Enzyme responsible for metabolism: primary enzyme responsible for ampreloxetine metabolism
[3]
  Fraction eliminated through metabolism: > 90%
Plasma protein
  Plasma protein binding: 79.1%
SERT; rat spinal cord, oral dose
  EC50, plasma concentration associated with 50% SERT occupancy: 50.8 ng/mL
SERT; rat, single oral dose, effect compartment PK/PD model
  Emax, maximal SERT occupancy in spinal cord: 79.0 % occupancy
SERT; rat, central PK compartment to effect compartment
  keo, first-order equilibration rate constant, SERT: 11.0 h⁻¹

From patent US20230372318A1, “METHODS FOR TREATING A SUBJECT HAVING MULTIPLE SYSTEM ATROPHY” (Theravance Biopharma R&D IP, LLC, priority 2022, published 2023)
